Results on 3 compounds are retold here after patent US20250089720A1, “FUNGICIDAL MIXTURES COMPRISING COMBINATION CONTAINING PHTHALIMIDE” (Adama Makhteshim Ltd., priority 2022, published 2025).

Experiment [1] has as its system Ramularia (Ramularia collo-cygni) in barley. The experiment can be described thus: fungicidal activity toward Ramularia in barley, protected conditions. Format: in vivo. From the text: The following fungicides and combination of fungicides are applied to ramularia in barley. The observation was made 10 days after application. The results are shown below: The following fungicides and combination of fungicides are applied to ramularia in barley. The observation was made 24 days after application.

Experiment [2] deals with Septoria Tritici Blotch (STB) (Zymoseptoria tritici). The experiment can be described thus: glasshouse fungicidal efficacy against Septoria Tritici Blotch on winter wheat. The following applies: Abbott's transformation.
Method: The study design was a randomized complete block with 4 replicates.
The treatments were applied in accordance with Table 14, and on the day after application, artificial inoculation of the target was performed by spraying the inoculum solution at the concentration of 1×10^6 cfu/ml on the leaves. The compositions were diluted in a water volume equivalent to 400 L/ha.
Analysis of Variance (ANOVA) and a Bartlett test to assume the homogeneity of the treatment variances were performed on each assessment. Data were analyzed using ANOVA.
Evaluations were performed on incidence and severity of Septoria on leaves and transformed into percentage of disease control using the Abbott's transformation.

Take `Cc1ccc(S(=O)(=O)n2cc(F)c(=N)n(C)c2=O)cc1` [ADF-16]: the “Observed Efficacy” value in experiment [1] (ADF-16 25 g a.i./ha, 10 days after application) was 45.70%; in experiment [1] (ADF-16 25 g a.i./ha, 24 days after application), 44.50%; in experiment [1] (ADF-16 35 g a.i./ha, 10 days after application), 55.00%; in experiment [1] (ADF-16 35 g a.i./ha, 24 days after application), 45.60%.
In the case of `O=C1c2ccccc2C(=O)N1SC(Cl)(Cl)Cl` [Folpet, folpet], the “Disease control on severity on leaves” value in experiment [2] (Folpet 500 g AI/ha) is reported as 41.6%. Also, the “Observed Efficacy” value is 25.10% in experiment [1] (Folpet 175 g a.i./ha, 10 days after application); 21.60% in experiment [1] (Folpet 175 g a.i./ha, 24 days after application); 61.10% in experiment [1] (Folpet 300 g a.i./ha, 10 days after application); 31.00% in experiment [1] (Folpet 300 g a.i./ha, 24 days after application); 64.80% in experiment [1] (Folpet 400 g a.i./ha, 10 days after application); 49.80% in experiment [1] (Folpet 400 g a.i./ha, 24 days after application).
As for `CC(O)(Cn1cncn1)c1ccc(Oc2ccc(Cl)cc2)cc1C(F)(F)F` (stereo not drawn) [Mefentrifluconazole], in experiment [2] (Mefentrifluconazole 100 g AI/ha), the “Disease control on severity on leaves” value amounted to 49.9%.
